From ChEMBL document CHEMBL1201862, “PubChem BioAssay data set” (2004)
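These data come from cells grown in 96-well plates and exposed to compound for 48 hours at five concentrations. GI50 marks 50% less growth.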 Activity calls are given as the source filed them. No stated cut-off is given here; in the data, active = GI50 up to about 1.1 µM and inactive = higher.

Key:
Test in all cases: NCI tumour cell line growth inhibition, 48 h
786-0 = system: 786-0
A498 = system: A498
A549 = system: A549
ACHN = system: ACHN
CAKI-1 = system: CAKI-1
CCRF-CEM = system: CCRF-CEM
COLO 205 = system: COLO 205
DLD-1 = system: DLD-1
DMS-114 = system: DMS-114
DMS-273 = system: DMS-273
EKVX = system: EKVX
HCC 2998 = system: HCC 2998
HCT-116 = system: HCT-116
HCT-15 = system: HCT-15
HL-60 = system: HL-60
HOP-18 = system: HOP-18
HOP-62 = system: HOP-62
HOP-92 = system: HOP-92
HT-29 = system: HT-29
IGROV-1 = system: IGROV-1
K562 = system: K562
KM-20L2 = system: KM-20L2
KM12 = system: KM12
LOX IMVI = system: LOX IMVI
LXFL 529 = system: LXFL 529
M14 = system: M14
M19-MEL = system: M19-MEL
MOLT-4 = system: MOLT-4
Malme-3M = system: Malme-3M
NCI-H226 = system: NCI-H226
NCI-H23 = system: NCI-H23
NCI-H460 = system: NCI-H460
NCI-H522 = system: NCI-H522
OVCAR-3 = system: OVCAR-3
OVCAR-4 = system: OVCAR-4
OVCAR-5 = system: OVCAR-5
OVCAR-8 = system: OVCAR-8
RPMI-8226 = system: RPMI-8226
RXF 393 = system: RXF 393
SF-268 = system: SF-268
SF-295 = system: SF-295
SK-MEL-28 = system: SK-MEL-28
SK-MEL-2 = system: SK-MEL-2
SK-MEL-5 = system: SK-MEL-5
SK-OV-3 = system: SK-OV-3
SN12C = system: SN12C
SNB-19 = system: SNB-19
SNB-75 = system: SNB-75
SR = system: SR
SW-620 = system: SW-620
TK-10 = system: TK-10
U-251 = system: U-251
UACC-257 = system: UACC-257
UACC-62 = system: UACC-62
UO-31 = system: UO-31
XF498 = system: XF498

## CC(=O)OCC1OC(n2cc(I)c(=O)[nH]c2=O)C(OC(C)=O)C(OC(C)=O)C1OC(C)=O (stereo unspecified)
786-0
  GI50: > 100 µM (inactive)
A498
  GI50: > 100 µM (inactive)
A549
  GI50: > 100 µM (inactive)
ACHN
  GI50: > 100 µM (inactive)
CAKI-1
  GI50: > 100 µM (inactive)
CCRF-CEM
  GI50: > 100 µM (inactive)
COLO 205
  GI50: > 100 µM (inactive)
DLD-1
  GI50: > 100 µM (inactive)
DMS-114
  GI50: > 100 µM (inactive)
DMS-273
  GI50: > 100 µM (inactive)
EKVX
  GI50: > 100 µM (inactive)
HCC 2998
  GI50: > 100 µM (inactive)
HCT-116
  GI50: > 100 µM (inactive)
HCT-15
  GI50: > 100 µM
HL-60
  GI50: > 100 µM (inactive)
HOP-18
  GI50: > 100 µM (inactive)
HOP-62
  GI50: > 100 µM (inactive)
HOP-92
  GI50: > 100 µM (inactive)
HT-29
  GI50: > 100 µM (inactive)
IGROV-1
  GI50: > 100 µM (inactive)
K562
  GI50: > 100 µM (inactive)
KM-20L2
  GI50: > 100 µM (inactive)
KM12
  GI50: > 100 µM (inactive)
LOX IMVI
  GI50: > 100 µM (inactive)
LXFL 529
  GI50: > 100 µM (inactive)
M14
  GI50: > 100 µM (inactive)
M19-MEL
  GI50: > 100 µM (inactive)
MOLT-4
  GI50: > 100 µM (inactive)
Malme-3M
  GI50: > 100 µM (inactive)
NCI-H226
  GI50: > 100 µM (inactive)
NCI-H23
  GI50: > 100 µM (inactive)
NCI-H460
  GI50: > 100 µM (inactive)
NCI-H522
  GI50: > 100 µM (inactive)
OVCAR-3
  GI50: > 100 µM (inactive)
OVCAR-4
  GI50: > 100 µM (inactive)
OVCAR-5
  GI50: > 100 µM (inactive)
OVCAR-8
  GI50: > 100 µM (inactive)
RPMI-8226
  GI50: > 100 µM (inactive)
RXF 393
  GI50: > 100 µM (inactive)
SF-268
  GI50: > 100 µM (inactive)
SF-295
  GI50: > 100 µM (inactive)
SK-MEL-28
  GI50: > 100 µM (inactive)
SK-MEL-2
  GI50: > 100 µM (inactive)
SK-MEL-5
  GI50: > 100 µM (inactive)
SK-OV-3
  GI50: > 100 µM (inactive)
SN12C
  GI50: > 100 µM (inactive)
SNB-19
  GI50: > 100 µM (inactive)
SNB-75
  GI50: 82.8 µM (inactive)
SR
  GI50: > 100 µM (inactive)
SW-620
  GI50: > 100 µM (inactive)
TK-10
  GI50: > 100 µM (inactive)
U-251
  GI50: > 100 µM (inactive)
UACC-257
  GI50: > 100 µM (inactive)
UACC-62
  GI50: > 100 µM (inactive)
UO-31
  GI50: > 100 µM (inactive)
XF498
  GI50: > 100 µM (inactive)
